{"source": "paper PMC10739591", "about": "“mCherry on Top: A Positive Read-Out Cellular Platform for Screening DMD Exon Skipping Xenopeptide–PMO Conjugates” (Bioconjugate Chemistry, 2023)", "tested_on": "DMD exon 23", "experiment": "Splicing modulation in vivo (DMD exon 23 skipping, nested RT-PCR ex vivo)", "details": "BALB/c mice, i.v., 375 µg PMO, 48 h after injection", "experimental": "6-week-old female BALB/c mice (BALB/cByJRj, Janvier, Le Genest-Saint-Isle, France) were housed in isolated ventilated cages under pathogen-free conditions with a 12 h light/dark interval. The mice were acclimated for 7 days prior to treatments. Water and food were provided ad libitum. For splice switching in the physiological DMD gene, PMO formulations were prepared 48 h before intravenous injection, as described above. The freeze-dried PMO formulations were reconstituted with HBG to obtain a concentration of 375 μg PMO per 150 μL. The mice were randomly divided into three groups (n = 6 for PMO(Ex23)-1395, and n = 5 for free 3′ primary amine-modified PMO(Ex23) and PMO(705)-1395). 150 μL of PMO solution was injected intravenously into a lateral tail vein. 48 h after injection, the mice were euthanized and the brain, spleen, quadriceps femoris muscle, kidneys, liver, lung, and heart were harvested. For stabilization of the mRNA, the organs were incubated in RNAlater solution (Thermo Fisher Scientific, Waltham) overnight at 4 °C and afterward stored at −20 °C. Each organ was manually homogenized using a mortar and pestle and liquid nitrogen. […]\nThe final PCR products were analyzed by agarose gel electrophoresis (2% agarose gel; 100 V; 2 h). Individual band intensities were quantified and put into relation to the band of full-length DMD-Ex20–24 with a size of 633 bp by using ImageJ software.", "data": [{"substance": "PMO(Ex23): PMO GGCCAAACCTCGGCTTACCTGAAAT with 3'-primary amine; targets donor splice site of DMD intron 23 (PMO, 3'-primary amine, chemistry not fully specified)", "values": [{"measurement": "DMD exon 23 skipping in skeletal muscle (quadriceps femoris)", "result": "predominant splice-switching activity in the skeletal muscle"}]}]}
